According to PubChem BioAssay (NCI):
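Briefly, cells in 96-well plates were exposed to five compound concentrations for 48 h, and endpoints were estimated by linear interpolation. TGI: total growth inhibition.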

Columns and labels:
Test in all cases: inhibition of tumour cell growth, NCI panel, 48 h
DU-145 prostate = system: DU-145 prostate
HOP-62 NSCLC = system: HOP-62 NSCLC
SW-620 colon = system: SW-620 colon
MCF7 breast = system: MCF7 breast
NCI-H522 lung = system: NCI-H522 lung
NCI/ADR-RES ovarian = system: NCI/ADR-RES ovarian
MOLT-4 leukemia = system: MOLT-4 leukemia
SK-MEL-5 melanoma = system: SK-MEL-5 melanoma
SK-MEL-28 melanoma = system: SK-MEL-28 melanoma
HL-60(TB) leukemia = system: HL-60(TB) leukemia
RXF 393 renal = system: RXF 393 renal
NCI-H23 lung = system: NCI-H23 lung
SF-539 CNS = system: SF-539 CNS
SN12C renal = system: SN12C renal
SK-OV-3 ovarian = system: SK-OV-3 ovarian
SF-295 CNS = system: SF-295 CNS
NCI-H460 lung = system: NCI-H460 lung
COLO 205 colon = system: COLO 205 colon
SF-268 CNS = system: SF-268 CNS
ACHN renal = system: ACHN renal
HCC-2998 colon = system: HCC-2998 colon
MALME-3M melanoma = system: MALME-3M melanoma
MDA-MB-231 breast = system: MDA-MB-231 breast
SK-MEL-2 melanoma = system: SK-MEL-2 melanoma
HCT-116 colon = system: HCT-116 colon
SR leukemia = system: SR leukemia
OVCAR-8 ovarian = system: OVCAR-8 ovarian
CCRF-CEM leukemia = system: CCRF-CEM leukemia
IGROV1 ovarian = system: IGROV1 ovarian
LOX IMVI melanoma = system: LOX IMVI melanoma
HOP-92 NSCLC = system: HOP-92 NSCLC
UACC-62 melanoma = system: UACC-62 melanoma
UACC-257 melanoma = system: UACC-257 melanoma
CAKI-1 renal = system: CAKI-1 renal
HT29 colon = system: HT29 colon
MDA-MB-435 = system: MDA-MB-435
KM12 colon = system: KM12 colon
PC-3 prostate = system: PC-3 prostate
OVCAR-3 ovarian = system: OVCAR-3 ovarian
SNB-75 CNS = system: SNB-75 CNS
A498 renal = system: A498 renal
A549 NSCLC = system: A549 NSCLC
786-0 renal = system: 786-0 renal
HCT-15 colon = system: HCT-15 colon
BT-549 breast = system: BT-549 breast
K-562 leukemia = system: K-562 leukemia
NCI-H226 lung = system: NCI-H226 lung
MDA-N = system: MDA-N
M14 melanoma = system: M14 melanoma
HS 578T breast = system: HS 578T breast
EKVX NSCLC = system: EKVX NSCLC
T-47D breast = system: T-47D breast
OVCAR-5 ovarian = system: OVCAR-5 ovarian
OVCAR-4 ovarian = system: OVCAR-4 ovarian
TK-10 renal = system: TK-10 renal
U251 CNS = system: U251 CNS
SNB-19 CNS = system: SNB-19 CNS
UO-31 renal = system: UO-31 renal
RPMI-8226 leukemia = system: RPMI-8226 leukemia

SMILES: CCCCCCCC/C=C\CCCCCCC/C=C1\C[C@](/C=C/C(=O)OC)(CO)OC1=O
- TGI (DU-145 prostate): 24.6 µM
- TGI (HOP-62 NSCLC): 9.18 µM
- TGI (SW-620 colon): 3.78 µM
- TGI (MCF7 breast): 14.7 µM
- TGI (NCI-H522 lung): 8.61 µM
- TGI (NCI/ADR-RES ovarian): 14.6 µM
- TGI (MOLT-4 leukemia): 10.6 µM
- TGI (SK-MEL-5 melanoma): 16.8 µM
- TGI (SK-MEL-28 melanoma): 3.38 µM
- TGI (HL-60(TB) leukemia): 6.14 µM
- TGI (RXF 393 renal): 12.3 µM
- TGI (NCI-H23 lung): 16.1 µM
- TGI (SF-539 CNS): 3.82 µM
- TGI (SN12C renal): 4.01 µM
- TGI (SK-OV-3 ovarian): 19.1 µM
- TGI (SF-295 CNS): 14.1 µM
- TGI (NCI-H460 lung): 20.2 µM
- TGI (COLO 205 colon): 5.02 µM
- TGI (SF-268 CNS): 4.4 µM
- TGI (ACHN renal): 7.9 µM
- TGI (HCC-2998 colon): 13.8 µM
- TGI (MALME-3M melanoma): 2860 nM
- TGI (MDA-MB-231 breast): 6.6 µM
- TGI (SK-MEL-2 melanoma): 23.9 µM
- TGI (HCT-116 colon): 6.26 µM
- TGI (SR leukemia): > 23.5 µM
- TGI (OVCAR-8 ovarian): 8.5 µM
- TGI (CCRF-CEM leukemia): > 23 µM
- TGI (IGROV1 ovarian): 6.29 µM
- TGI (LOX IMVI melanoma): 3.02 µM
- TGI (HOP-92 NSCLC): 21.1 µM
- TGI (UACC-62 melanoma): 20.1 µM
- TGI (UACC-257 melanoma): 26.6 µM
- TGI (CAKI-1 renal): 4.15 µM
- TGI (HT29 colon): 25.8 µM
- TGI (MDA-MB-435): 3.22 µM
- TGI (KM12 colon): 14.2 µM
- TGI (PC-3 prostate): 6.96 µM
- TGI (OVCAR-3 ovarian): 16.6 µM
- TGI (SNB-75 CNS): 4.59 µM
- TGI (A498 renal): 22.7 µM
- TGI (A549 NSCLC): 17.8 µM
- TGI (786-0 renal): 3.61 µM
- TGI (HCT-15 colon): 8.22 µM
- TGI (BT-549 breast): 7.15 µM
- TGI (K-562 leukemia): 15.3 µM
- TGI (NCI-H226 lung): 6.66 µM
- TGI (MDA-N): 2270 nM
- TGI (M14 melanoma): 4.34 µM
- TGI (HS 578T breast): 4.69 µM
- TGI (EKVX NSCLC): 24.7 µM
- TGI (T-47D breast): 13.1 µM
- TGI (OVCAR-5 ovarian): 19.5 µM
- TGI (OVCAR-4 ovarian): 10.9 µM
- TGI (TK-10 renal): 8 µM
- TGI (U251 CNS): 5.92 µM
- TGI (SNB-19 CNS): 16 µM
- TGI (UO-31 renal): 3.76 µM

SMILES: O=c1[nH]nc(-c2ccccc2)n1/N=C\c1ccccc1
- TGI (DU-145 prostate): > 100 µM
- TGI (HOP-62 NSCLC): > 100 µM
- TGI (SW-620 colon): > 100 µM
- TGI (MCF7 breast): > 100 µM
- TGI (NCI-H522 lung): > 100 µM
- TGI (NCI/ADR-RES ovarian): > 100 µM
- TGI (MOLT-4 leukemia): > 100 µM
- TGI (SK-MEL-5 melanoma): > 100 µM
- TGI (SK-MEL-28 melanoma): > 100 µM
- TGI (HL-60(TB) leukemia): > 100 µM
- TGI (RXF 393 renal): > 100 µM
- TGI (NCI-H23 lung): > 100 µM
- TGI (SF-539 CNS): > 100 µM
- TGI (SN12C renal): > 100 µM
- TGI (SF-295 CNS): > 100 µM
- TGI (NCI-H460 lung): > 100 µM
- TGI (COLO 205 colon): > 100 µM
- TGI (SF-268 CNS): > 100 µM
- TGI (ACHN renal): > 100 µM
- TGI (HCC-2998 colon): > 100 µM
- TGI (MALME-3M melanoma): > 100000 nM
- TGI (MDA-MB-231 breast): > 100 µM
- TGI (SK-MEL-2 melanoma): > 100 µM
- TGI (HCT-116 colon): > 100 µM
- TGI (SR leukemia): > 100 µM
- TGI (OVCAR-8 ovarian): > 100 µM
- TGI (CCRF-CEM leukemia): > 100 µM
- TGI (LOX IMVI melanoma): > 100 µM
- TGI (HOP-92 NSCLC): > 100 µM
- TGI (UACC-62 melanoma): > 100 µM
- TGI (UACC-257 melanoma): > 100 µM
- TGI (CAKI-1 renal): > 100 µM
- TGI (RPMI-8226 leukemia): > 100 µM
- TGI (HT29 colon): > 100 µM
- TGI (MDA-MB-435): > 100 µM
- TGI (KM12 colon): > 100 µM
- TGI (PC-3 prostate): > 100 µM
- TGI (OVCAR-3 ovarian): > 100 µM
- TGI (SNB-75 CNS): > 100 µM
- TGI (A498 renal): > 100 µM
- TGI (A549 NSCLC): > 100 µM
- TGI (786-0 renal): > 100 µM
- TGI (HCT-15 colon): > 100 µM
- TGI (BT-549 breast): > 100 µM
- TGI (K-562 leukemia): > 100 µM
- TGI (NCI-H226 lung): > 100 µM
- TGI (MDA-N): > 100000 nM
- TGI (HS 578T breast): > 100 µM
- TGI (EKVX NSCLC): > 100 µM
- TGI (T-47D breast): > 100 µM
- TGI (OVCAR-5 ovarian): > 100 µM
- TGI (OVCAR-4 ovarian): > 100 µM
- TGI (TK-10 renal): > 100 µM
- TGI (U251 CNS): > 100 µM
- TGI (UO-31 renal): > 100 µM
